The results in this text go back to ChEMBL document CHEMBL1201862, “PubChem BioAssay data set” (2004).

Some test systems named below: COLO 205; NCI-H460; KM12; HCT-15; CCRF-CEM; A498; HCT-116; A549; NCI-H23; NCI-H522; SK-MEL-2; UACC-62; SK-MEL-5; ACHN; TK-10; Malme-3M; SK-OV-3.
Common to all, as to assay: DTP human tumour cell line panel, 48 h

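Exposure lasted 48 hours, with cells grown in 96-well plates and compounds tested at five concentrations. GI50 marks 50% less growth.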 Calls of active or inactive are those of the source. Cut-off read from the data, not from the text of the source: active = GI50 up to about 1.1 µM and inactive = higher. Bounds are passed on as bounds.

For the compound `O=C/C(=C(/Cl)c1ccc(O)cc1)c1ccccc1`, the GI50 in the test on COLO 205 was 23 µM (inactive); in the test with NCI-H460, 33.2 µM (inactive); in the test on KM12, 35.6 µM (inactive); with HCT-15, 16.1 µM; with CCRF-CEM, 15.2 µM (inactive); in the test with A498, 50.5 µM (inactive). Besides, the GI50 was 18.1 µM (inactive) with HCT-116; 32.1 µM (inactive) in the test on A549; 24.4 µM (inactive) in the test on NCI-H23; 13.3 µM (inactive) in the test with NCI-H522; 32.7 µM (inactive) in the test with SK-MEL-2; 13.2 µM (inactive) with UACC-62. The GI50 in the test on SK-MEL-5 was 23 µM (inactive); in the test with ACHN, 20.9 µM (inactive); in the test on TK-10, 29 µM (inactive); in the test on Malme-3M, 23.7 µM (inactive); in the test with SK-OV-3, 26.5 µM (inactive).

As for `Cc1oc2c(C)c(O)c3c(c2c1C1(C)OCCO1)C(=O)C=C(Cl)C3=O`, the GI50 in the test with COLO 205 was > 100 µM (inactive); with NCI-H460, > 100 µM (inactive); in the test on KM12, > 100 µM (inactive); with HCT-15, more than 100 µM; with CCRF-CEM, > 100 µM (inactive); with A498, > 100 µM (inactive). Further, the GI50 in the test with HCT-116, in the test with A549, with NCI-H23, with NCI-H522, in the test with SK-MEL-2 and in the test on SK-MEL-5 was > 100 µM (inactive) in each case. Also, the GI50 with ACHN and in the test with TK-10 was > 100 µM (inactive) in each case.

With `Cc1ccccc1NC(=O)CC(=O)NNCC(=O)Nc1nnc(-c2ccccc2)s1`, the GI50 was > 100 µM (inactive) in the test on COLO 205; 48.2 µM (inactive) in the test on NCI-H460; > 100 µM (inactive) in the test with KM12; 58.2 µM in the test with HCT-15; 30.9 µM (inactive) in the test with A498; 64.9 µM (inactive) in the test with HCT-116. The GI50 in the test on A549 was > 100 µM (inactive); in the test with NCI-H23 it was > 100 µM (inactive); in the test on NCI-H522 it was 65.2 µM (inactive); in the test on SK-MEL-2, > 100 µM (inactive); in the test on UACC-62 it was > 100 µM (inactive); with SK-MEL-5 it was 51.1 µM (inactive). The GI50 in the test with ACHN was 54.2 µM (inactive); with TK-10 it was 42.7 µM (inactive).

Consider `CC(C)C1=Cc2ccc3c(c2C(=O)C1=O)CCCC3(C)C` [MILTIRONE], for which the GI50 in the test on COLO 205 is 4.19 µM (inactive); with NCI-H460, 17.3 µM (inactive); in the test with KM12, 16.1 µM (inactive); with HCT-15, 1.99 µM; in the test on CCRF-CEM, 1.17 µM (inactive); in the test on A498, 17.4 µM (inactive). Also, the GI50 in the test on HCT-116 was 1.81 µM (inactive); in the test on A549, 18.3 µM (inactive); with NCI-H23, 13.7 µM (inactive); with NCI-H522, 1.79 µM (inactive); in the test on SK-MEL-2 it was 17 µM (inactive); in the test on UACC-62, 5.66 µM (inactive). In addition, the GI50 with SK-MEL-5 was 12.3 µM (inactive); in the test on ACHN, 5.82 µM (inactive); in the test with TK-10, 3.14 µM (inactive); with Malme-3M, 4.74 µM (inactive); in the test on SK-OV-3, 18.1 µM (inactive).

With `Cc1cc(N(CCC#N)CCC#N)ccc1/N=N/c1cccc(Cl)c1`, the GI50 with COLO 205 is > 100 µM (inactive); in the test on NCI-H460, 5.75 µM (inactive); in the test with KM12 it was > 100 µM (inactive); in the test on CCRF-CEM it was > 100 µM (inactive); in the test with A498 it was > 100 µM (inactive); with HCT-116 it was > 100 µM (inactive). Besides, the GI50 in the test with A549 was 9.93 µM (inactive); in the test on NCI-H23, 80.7 µM (inactive); in the test with NCI-H522, > 100 µM (inactive); in the test with SK-MEL-2, > 100 µM (inactive); with UACC-62, 70.8 µM (inactive); with SK-MEL-5 it was > 100 µM (inactive). Moreover, the GI50 with ACHN, in the test with TK-10, in the test with Malme-3M and in the test on SK-OV-3 was > 100 µM (inactive) throughout.

With `CN(C)CCN(C)C(=O)C1CCCN1C(=O)OCc1ccccc1` (centres undefined), the GI50 with COLO 205 was > 100 µM (inactive); with NCI-H460, > 100 µM (inactive); in the test with HCT-15, more than 100 µM; with CCRF-CEM it was 19.4 µM (inactive); in the test with A498, > 100 µM (inactive); in the test with HCT-116, > 100 µM (inactive). Besides, the GI50 in the test on A549 is > 100 µM (inactive); in the test on NCI-H23 it was > 100 µM (inactive); in the test with NCI-H522 it was 6.71 µM (inactive); in the test on SK-MEL-2 it was > 100 µM (inactive); in the test with UACC-62 it was > 100 µM (inactive); in the test with SK-MEL-5, > 100 µM (inactive). The GI50 in the test on ACHN, with TK-10, with Malme-3M and with SK-OV-3 was > 100 µM (inactive) throughout.

Take `O=CN/C=C\c1cc(O)ccc1O`: the GI50 in the test with COLO 205 was 14.2 µM (inactive); in the test with NCI-H460 it was 10 µM (inactive); in the test on KM12, > 22.5 µM (inactive); in the test on HCT-15, 9.31 µM; in the test with CCRF-CEM, 5.11 µM (inactive); with A498 it was 74.8 µM (inactive). The GI50 in the test with HCT-116 is 10.6 µM (inactive); in the test on A549 it was > 100 µM (inactive); with NCI-H23, 15.8 µM (inactive); in the test with NCI-H522 it was 4.99 µM (inactive); in the test on SK-MEL-2, > 48.9 µM (inactive); in the test on UACC-62, 11.6 µM (inactive). Further, the GI50 was 7.59 µM (inactive) in the test with SK-MEL-5; 15 µM (inactive) in the test on ACHN; > 46.2 µM (inactive) in the test on TK-10; 13.8 µM (inactive) with Malme-3M; > 100 µM (inactive) in the test on SK-OV-3.

As to `N#CC12Cc3cc4c(cc3-c3cccc(c31)CCN2C(=O)c1ccccc1)OCO4` (centres undefined), the GI50 with COLO 205 is > 100 µM (inactive); in the test with KM12 it was > 100 µM (inactive); in the test with CCRF-CEM, > 100 µM (inactive); with A498 it was 53.3 µM (inactive); in the test on HCT-116, > 100 µM (inactive); with A549, > 100 µM (inactive). In addition, the GI50 is > 100 µM (inactive) with NCI-H23; > 10 µM (inactive) in the test on NCI-H522; > 100 µM (inactive) in the test with SK-MEL-2; > 100 µM (inactive) in the test on UACC-62; > 100 µM (inactive) in the test on SK-MEL-5; > 100 µM (inactive) in the test on ACHN. Besides, the GI50 with TK-10, with Malme-3M and in the test on SK-OV-3 was > 100 µM (inactive) throughout.

`BrC(Br)([P+](c1ccccc1)(c1ccccc1)c1ccccc1)[P+](c1ccccc1)(c1ccccc1)c1ccccc1`: the GI50 with COLO 205 is 16.4 µM (inactive); with NCI-H460, 22.8 µM (inactive); in the test with HCT-15, 20.4 µM; with A498 it was 22.4 µM (inactive); with HCT-116 it was 17.3 µM (inactive); with A549 it was 26.3 µM (inactive). The GI50 in the test with NCI-H23 is 16.8 µM (inactive); with NCI-H522, 15 µM (inactive); with SK-MEL-2, 16.5 µM (inactive); in the test on UACC-62 it was 14.6 µM (inactive); in the test with SK-MEL-5, 15.9 µM (inactive); in the test on ACHN, 17.7 µM (inactive). The GI50 was 14.1 µM (inactive) with TK-10, 12.5 µM (inactive) in the test with Malme-3M and 38.5 µM (inactive) in the test on SK-OV-3.

For the compound `CCSc1nc2n(c(=S)n1)CCN2C`, the GI50 in the test on NCI-H460 was 21.1 µM (inactive); in the test with KM12, 21.4 µM (inactive); in the test with HCT-15, 17.5 µM; in the test on A498, 19.3 µM (inactive); in the test on HCT-116 it was 15.7 µM (inactive); in the test with A549 it was 24.5 µM (inactive). Moreover, the GI50 in the test on NCI-H522 is 5.4 µM (inactive); in the test with SK-MEL-2, 19.1 µM (inactive); in the test on UACC-62, 12.1 µM (inactive); in the test with SK-MEL-5 it was 15.2 µM (inactive); with ACHN, 19.1 µM (inactive); in the test with Malme-3M, 17.1 µM (inactive). The GI50 in the test with SK-OV-3 is 21 µM (inactive).

On to `C/C=C1\CN2CCc3c([nH]c4ccccc34)C2CC1CCO` (centres undefined), for which the GI50 in the test on COLO 205 was > 100 µM (inactive); in the test on NCI-H460, > 100 µM (inactive); in the test with KM12, > 100 µM (inactive); with HCT-15 it was more than 100 µM; in the test on CCRF-CEM, > 100 µM (inactive); in the test with A498 it was > 100 µM (inactive). Further, the GI50 with HCT-116, with A549, in the test on NCI-H23, with NCI-H522, in the test with SK-MEL-2 and in the test on SK-MEL-5 was > 100 µM (inactive) throughout. For the same compound, the GI50 in the test on ACHN, in the test with TK-10, with Malme-3M and in the test with SK-OV-3 was > 100 µM (inactive) each time.

With `C=CCC1(CN(C)C)CC/C(=C\c2cc(OC)c(OC)c(OC)c2)C1=O` (centres undefined), the GI50 is 17 µM (inactive) in the test with COLO 205; 18.8 µM (inactive) with NCI-H460; 17.4 µM (inactive) with KM12; 20 µM in the test on HCT-15; 23.3 µM (inactive) with CCRF-CEM; 29.4 µM (inactive) in the test on A498. Besides, the GI50 in the test on HCT-116 is 17.5 µM (inactive); with A549, 40.2 µM (inactive); in the test on NCI-H23, 35 µM (inactive); with NCI-H522, 15.1 µM (inactive); in the test on SK-MEL-2 it was 42.8 µM (inactive); in the test on UACC-62 it was 21.3 µM (inactive). Moreover, the GI50 with SK-MEL-5 was 20 µM (inactive); with ACHN, 25.8 µM (inactive); in the test on TK-10, 18.8 µM (inactive); in the test on Malme-3M it was 33.1 µM (inactive).

Take `Cc1cccc(NC2=NC(=O)C(CC(=O)Nc3ccccc3Cl)S2)c1` (centres undefined): the GI50 in the test on NCI-H460 was > 100 µM (inactive); with HCT-15, more than 100 µM; in the test with CCRF-CEM, > 100 µM (inactive); with A498 it was > 100 µM (inactive); in the test with HCT-116, > 100 µM (inactive); in the test on A549 it was > 100 µM (inactive). For the same compound, the GI50 in the test with NCI-H23, in the test on SK-MEL-2, in the test on UACC-62, with SK-MEL-5, with ACHN and in the test with TK-10 was > 100 µM (inactive) throughout. Besides, the GI50 in the test on Malme-3M was > 100 µM (inactive).

Broadly, the GI50 is the concentration at which growth is held to half of that of the control.
